Results published in patent US6605712B1, “Gene transcription and ionizing radiation: methods and compositions” (Arch Development Corporation, priority 1990, dated 2003).
“Also recorded” adds a separate entry of the source.

What was measured:
HL-205 cells = experiment: Northern analysis of c-Jun mRNA; assay type: cell-based, human
Experimental: (§1) Cell culture. Clone HL-205 was isolated from the human HL-60 myeloid leukemia cell line. The phorbol ester-resistant variant of HL-60 cells, designated HL-525, was isolated by exposing wild-type cells to low concentrations of 12-0-tetradecanoylphorbol-13-acetate (TPA; 0.5 to 3 nM) for 102 passages. These cells were maintained in RPMI 1640 medium containing 20% fetal bovine serum (FBS) with 1 mM L-glutamine, 100 U/ml penicillin and 100 μg/ml streptomycin. Irradiation was performed at room temperature using a Gamma cell 1000 (Atomic Energy at Canada Ltd., Ontario) with a ^137CS source emitting at a fixed dose rate of 14.3 Gray (Gy)/min as determined by dosimetry.
(§2) Isolation and analysis of RNA. Total cellular RNA was purified by the guanidine isothiocyanate-cesium chloride technique. The RNA was analyzed by electrophoresis through 1% agarose-formaldehyde gels, transferred to nitrocellulose filters, and hybridized to the following 32P-labeled DNA probes: 1) the 1.8-kb BamHI/EcoRI insert of a human c-Jun gene purified from a pBluescript SK(+) plasmid; 2) the 1.5-kb EcoRI fragment of the murine Jun-B cDNA from the p465.20 plasmid; 3) Jun-D; 4) the 0.9-kb ScaI/NcoI insert of human c-fos gene purified from the pc-fos-1 plasmid; 5) the 2.0-kb PstI insert of a chicken β-actin gene purified from the pA1 plasmid; and 6) the 1.9-kb BamHI/PstI insert of a human TNF cDNA purified from the pE4 plasmid. Hybridizations were performed at 42° C. for 24 h in 50% (v/v) formamide, 2×SSC, 1×Denhardt's solution, 0.1% SDS, and 200 μg/ml salmon sperm DNA. The filters were washed twice in 2×SSC-0.1% SDS at room temperature and then in 0.1×SSC-0.1% SDS at 60° C. for 1 hour.

HL-525 cells [1] = experiment: Northern analysis of c-Jun mRNA; assay type: cell-based, human
Experimental: as §1, §2

HL-525 cells [2] = experiment: Nuclear run-on assay of c-Jun transcription; assay type: cell-based, human; settings: radiation alone 4-fold increase
Experimental: Nuclear run-on assays. Nuclei were isolated from 10^8 cells and suspended in 100 μl glycerol buffer (50 mM Tris-HCl, pH 8.3, 40% glycerol, 5 mM MgCl2, and 0.1 mM EDTA). An equal volume of reaction buffer (10 mM Tris-HCl, ph 8.0, 5 mM MgCl2, 100 mM KCl, 1 mM ATP, 1 mM CTP, 1 mM GTP, and 5 mM dithiothreitol) was added to the nuclei in suspension and incubated at 26° C. for 30 min with 250 μCi [α-^32P]UTP (3000 Ci/mmol; Dupont, Boston, Mass.). The nuclear RNA was isolated as described and hybridized to the following DNAs: 1) a PstI digest of the pA1 plasmid containing a fragment of the chicken β-action gene; and 2) a BamHI/EcoRI digest of the pBluescript SK(+) plasmid containing a fragment of the human c-Jun gene. The digested DNAs were run in 1% agarose gels and transferred to nitrocellulose filters. Hybridizations were performed with 10^7 cpm of ^32P-labeled RNA/ml in 10 mM Tris-HCl, ph 7.5, 4×SSC, 1 mM EDTA, 0.1% SDS, 2×Denhardt's solution, 40% formamide, and 100 μg/ml yeast tRNA for 72 h at 42° C. The filters were washed in: a) 2×SSC-0.1% SDS at 37° C. for 30 min; b) 200 ng/ml RNase A in 2×SSC at room temperature for 5 min; and c) 0.1×SSC-0.1% SDS at 42° C. for 30 min.

RIT-3 cells = experiment: GAL4-Jun chimeric / G5BCAT co-transfection CAT assay; assay type: cell-based, human
Description: HeLa and RIT-3 cells were transfected with two plasmids. Plasmid pSG-Jun5-253 contained the SV40 promoter (not transcriptionally responsive to radiation) upstream of an encoding region that encoded a chimeric protein (GAL4-Jun) comprising a sequence for Δ, A1, and A2 (Baichwal, 1990) and the DNA binding domain of the yeast GAL4 gene (the DNA binding domain of Jun was replaced with the DNA binding domain of the GAL4 gene, Baichwal, 1990). A second plasmid, G5BCAT was constructed to contain the DNA sequence that binds Gal4 protein placed 5′ of the Elb TATA box and upstream of the CAT reporter gene (Baichwal, 1990).
Two plasmids were transfected into HeLa and RIT-3 cells to study activation of the transcriptional potential of Jun protein following irradiation. pSG-Jun5-253 contains the SV40 promoter, which is not transcriptionally responsive to radiation, upstream of the coding sequence for Δ, A1, and A2 (Baichwal, 1990). The DNA binding domain of Jun was replaced with the DNA binding domain of the yeast GAL4 gene which encodes a protein involved in yeast transcriptional regulation (Baichwal, 1990). A second plasmid, G5BCAT contains the DNA sequence which binds Gal4 protein placed 5′ of the E1b TATA box upstream of the CAT reporter gene (Baichwal, 1990). […]

[3] = test system: Egr-1 and Jun transcripts in cell lines 293 and SQ-20B; experiment: Northern blot of Egr-1 and Jun transcripts after x-irradiation with inhibitors; assay type: cell-based; settings: for effect on x-ray-induced increase in Egr-1 and Jun transcripts: treatment prior to irradiation
Experimental: Cell line SQ-20B was pretreated with 1 μM TPA for 40 hours to down regulate PKC and then stimulated with TPA, serum, or x-ray (20 Gy). Controls included x-ray without TPA pretreatment, TPA (50 nM) without TPA pretreatment and untreated cells. RNA was isolated after one hour and hybridized to Egr-1. SQ-20B cells were preincubated with 100 μM H7 (1-(5-isoquinolinylsulfonyl)-2-methyl piperazine) or 100 μM HA1004 (N-[2-methyl-amino]ethyl)-5-isoquino-linesulfonamide) (Seikagaku America, Inc., St. Petersberg, Fla.) for 30 minutes or TPA pretreatment (1 μM) for 40 hours and followed by exposure to 20 Gy x-irradiation. RNA was extracted one hour after irradiation. Positive control cells treated under the same conditions but in the absence of inhibitor also received 20 Gy, while negative control cells received neither H7 nor X-ray. RNA was extracted at one hour after 20 Gy without inhibitor. Northern blots were hybridized to Egr-1 or 7S. 293 cells pretreated with the above inhibitors were irradiated, RNA was extracted after 3 hours and the Northern blot was hybridized to Jun and 7S probes.

c-Jun gene expression = settings: other studies; cited from earlier work
cell line STSAR-33 = experiment: Colony-forming radiation-survival assay with TNF-α; assay type: cell-based, human
cell line STSAR-5 = experiment: Colony-forming radiation-survival assay with TNF-α; assay type: cell-based, human; settings: STSAR-5, 100-700 cGy
[4] = test system: Cell lines STSAR-13 and STSAR-43; experiment: Colony-forming radiation-survival assay with TNF-α; assay type: cell-based, human
cell line SQ-20B = experiment: Colony-forming radiation-survival assay with TNF-α; assay type: cell-based, human
cell line HNSCC-68 = experiment: Colony-forming radiation-survival assay with TNF-α; assay type: cell-based, human; settings: nonlethal TNF-α 10 units/ml
[5] = test system: TNF-α-producing sarcomas (STSAR-5, -13, -33, and -43)
[6] = test system: 12 human epithelial tumor cell lines; settings: cited from earlier work

## CC(=O)N[C@@H](CS)C(=O)O [NAC, N-acetyl-L-cysteine]
HL-205 cells; 30 mM
  effect on constitutive levels of c-Jun transcripts: little if any effect on constitutive levels of c-Jun transcripts
  inhibition of x-ray-induced increases in c-Jun expression: over 90%
HL-525 cells [1]
  effect on H2O2-induced c-Jun expression: similarly inhibited
  effect on ara-C-induced c-Jun gene induction: no detectable effect on induction of the c-Jun gene; also recorded: no detectable effect on ara-C-induced increases in c-Jun transcripts
  effect on x-ray-induced c-Jun expression: inhibited
HL-525 cells [2]
  inhibition of radiation-increased rate of c-Jun transcription: ~90%

## OO [Plasmid H2O2, H2O2]
HL-525 cells [1]
  effect of agent alone on c-Jun expression: transiently induced c-Jun expression; also recorded: increased c-Jun expression

## CC1CNCCN1S(=O)(=O)c1cccc2cnccc12 (centres unmarked) [Plasmid H7, 1-(5-isoquinolinylsulfonyl)-2-methyl piperazine]
RIT-3 cells; added to RIT-3 cells transfected with pSG-Jun5-235 and G5BCAT
  effect on x-ray induced increase in CAT activity: abrogated the x-ray induced increase in CAT activity
[3]
  effect on x-ray-induced increase in Egr-1 and Jun transcripts: attenuated the increase in Egr-1 and Jun transcripts; also recorded: attenuation of Egr-1 and Jun gene induction by ionizing radiation
c-Jun gene expression
  effect on x-ray-induced c-Jun expression: block x-ray-induced c-Jun gene product expression; also recorded: inhibited

## CCCCCCCCCCCCCC(=O)O[C@@H]1[C@@H](C)[C@@]2(O)[C@@H](C=C(CO)C[C@]3(O)C(=O)C(C)=C[C@@H]23)[C@H]2C(C)(C)[C@]12OC(C)=O [TPA, 12-0-tetradecanoylphorbol-13-acetate]
RIT-3 cells; HeLa and RIT-3 transfectants with pSG-Jun5-253 and G5BCAT
  increase in CAT activity following TPA stimulation: 3.5 fold
[3]
  effect on x-ray-induced increase in Egr-1 and Jun transcripts: attenuated the increase in Egr-1 and Jun transcripts; also recorded: attenuation of Egr-1 and Jun gene induction by ionizing radiation
HL-205 cells; agent alone
  effect on c-Jun expression: increases in c-Jun expression that were detectable at 6 hours and reached maximal levels by 24 hours
HL-525 cells [1]
  effect on expression of Jun-B, Jun-D, c-fos, fos-B: little if any effect on expression of these genes
  effect on x-ray-induced c-Jun expression: blocks x-ray-induced increases in c-Jun expression
HL-525 cells [1]; pretreatment
  block of H2O2-induced increases in c-Jun expression: 80%
HL-525 cells [1]; pretreatment 36-39 hours
  block of x-ray induced increases in c-Jun expression: over 75%

## CCC/C=C/C=C/C(=O)O[C@H]1/C(=C/C(=O)OC)C[C@H]2C[C@H]([C@@H](C)O)OC(=O)C[C@H](O)C[C@@H]3C[C@H](OC(C)=O)C(C)(C)[C@](O)(C[C@@H]4C/C(=C/C(=O)OC)C[C@H](/C=C/C(C)(C)[C@]1(O)O2)O4)O3 [bryostatin]
HL-525 cells [1]
  effect on H2O2-induced c-Jun expression: no detectable effect
  effect on x-ray-induced c-Jun expression: little if any effect on the induction of c-Jun transcripts by ionizing radiation

## C[C@@H]1C[C@@H]([C@H](O)CC2CC(=O)NC(=O)C2)C(=O)[C@@H](C)C1 [cycloheximide]
[3]; 293 cells pretreated with CHI
  Jun mRNA after irradiation in pretreated cells: persistent elevation of Jun mRNA at 6 hours
[3]; SQ-20B cells pretreated with CHI
  Egr-1 mRNA after irradiation in pretreated cells: persistent elevation of Egr-1 at 3 hours
[3]; normalized to 7S, no irradiation
  effect of treatment alone on Egr-1 and Jun transcripts: low but detectable increase in Egr-1 and Jun transcripts
[3]
  effect on x-ray-induced increase in Egr-1 and Jun transcripts: superinduction of Jun and Egr-1

## TNF-α
Cell line STSAR-33; STSAR-33, TNF-α 10 units/ml
  interaction between TNF-α and radiation: synergistic; also recorded: enhanced killing by radiation
Cell line STSAR-33; TNF-α 10 units/ml added 20 hr before irradiation, 80.4 cGy without TNF-α
  radiosensitivity (D0): 60.4 cGy
Cell line STSAR-33; TNF-α at 1000 units/ml
  plating efficiency (PE): 30%
Cell line STSAR-5
  interaction between TNF-α and radiation: additive
[4]
  interaction between TNF-α and radiation: no interaction was observed
Cell line SQ-20B; SQ-20B, FIG. 1B
  killing with TNF-α alone: 85%
Cell line SQ-20B; TNF-α 1000 units/ml added 24 hr before x-rays, 239 cGy without TNF-α
  radiosensitivity (D0): 130.4 cGy
Cell line SQ-20B; TNF-α added after irradiation
  effect on cell killing by radiation: did not enhance cell killing by radiation
Cell line HNSCC-68
  effect on radiation killing: enhanced radiation killing
[5]
  cytotoxicity: cytotoxic
[5]; 1000 units/ml
  reduction of plating efficiency (PE): 60-90%
SQ-20B and SCC-61 cells
  cytotoxicity: cytotoxic
SQ-20B and SCC-61 cells; 1000 units/ml
  reduction of plating efficiency (PE): 60-80%
[6]
  concentrations with cytotoxic effects: 10 to 1000 units/ml
[6]; seven of those ten cell lines
  killing by TNF and x-rays combined: synergistic or additive killing
